Consider 27 compounds from US4751233A, “8[2-(imidazolyl)thio] and 8[2-(thiazolyl)thio]-5,6,7,8-tetrahydroquinolines, and anti-allergic use thereof” (Roussel Uclaf, priority 1985, dated 1988).

For one test, the target named is T1, LTD4 receptor (Cavia porcellus, UniProt Q2NNR5).
T1 construct: membrane preparation of guinea-pig lung tissue; from tissue; host or cells: guinea-pig lung membranes
T1 sequence (Q2NNR5 1-340): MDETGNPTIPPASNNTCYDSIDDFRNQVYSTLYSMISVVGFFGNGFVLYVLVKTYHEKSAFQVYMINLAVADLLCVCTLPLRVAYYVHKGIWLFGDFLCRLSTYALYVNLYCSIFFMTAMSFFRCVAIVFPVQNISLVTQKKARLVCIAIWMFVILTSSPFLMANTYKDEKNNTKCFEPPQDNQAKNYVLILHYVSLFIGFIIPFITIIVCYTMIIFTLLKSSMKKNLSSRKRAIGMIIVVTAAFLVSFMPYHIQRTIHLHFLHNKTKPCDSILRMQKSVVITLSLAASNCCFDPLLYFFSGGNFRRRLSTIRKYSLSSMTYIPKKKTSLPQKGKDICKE
As to the kind of experiment: LTD4 RECEPTOR: inhibition of specific binding of [3H]-LTD4 to a membrane preparation of guinea-pig lung tissue. The conditions noted are these: [3H]-LTD4, guinea-pig lung membranes; for IC50: graphically from dose-response curves, read-out: LTD4 receptor (concentration of tested compound causing 50% inhibition of specific binding). As for the experimental part:
Inhibition of the specific binding of [^3 H]-LTD4 to a membrane preparation of guinea-pig lung tissue was assayed by a modification of a method reported by Bruns et al [Life Sciences, Vol. 33, pp. 645-653 (1983)]and the data presented in Table II are micromolar concentrations of the tested compound causing 50% ihibition of specific binding determined graphically from dose-response curves.

The target of another test is T2, 5-lipoxygenase (Rattus norvegicus, UniProt P12527).
T2 sequence (P12527 1-673): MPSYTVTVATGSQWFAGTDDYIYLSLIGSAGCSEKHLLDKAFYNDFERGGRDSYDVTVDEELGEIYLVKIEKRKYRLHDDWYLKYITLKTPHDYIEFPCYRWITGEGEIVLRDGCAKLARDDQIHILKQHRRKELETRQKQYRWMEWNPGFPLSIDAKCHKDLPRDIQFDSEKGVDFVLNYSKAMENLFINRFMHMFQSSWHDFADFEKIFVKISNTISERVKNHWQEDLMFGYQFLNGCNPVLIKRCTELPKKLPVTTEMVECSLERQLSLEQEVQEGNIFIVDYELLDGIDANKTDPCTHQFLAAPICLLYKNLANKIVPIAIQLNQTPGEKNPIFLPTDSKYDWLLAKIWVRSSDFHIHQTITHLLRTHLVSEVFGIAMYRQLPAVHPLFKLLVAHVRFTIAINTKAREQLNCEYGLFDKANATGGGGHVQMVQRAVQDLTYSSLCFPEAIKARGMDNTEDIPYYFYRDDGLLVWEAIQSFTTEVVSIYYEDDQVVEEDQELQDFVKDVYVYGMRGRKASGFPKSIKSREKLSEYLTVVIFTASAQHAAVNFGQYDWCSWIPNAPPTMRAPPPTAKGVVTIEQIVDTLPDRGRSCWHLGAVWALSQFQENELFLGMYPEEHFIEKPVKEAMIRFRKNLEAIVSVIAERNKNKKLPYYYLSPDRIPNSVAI
As to the kind of experiment: 5-LIPOX: inhibition of Ca++ ionophore (A23187) induced release of 5-lipoxygenase products (leukotriene B4 and 5-HETE) from [14C]arachidonic acid pre-labelled rat peritoneal neutrophils. Format: cell-based. The conditions noted are these: A23187-induced release of leukotriene B4 and 5-HETE, graphically from dose-response curves, read-out: 5-LIPOX (concentration of test compound causing 50% inhibition of control response). From the text: Inhibition of the Ca^++ ionophore (A23187) induced release of 5-lipoxygenase products, leukotriene B4 and 5-HETE, from [^14 C]arachidonic acid pre-labelled rat peritoneal neutrophils. Assayed by a modification of the method reported by Ahnfelt-Ronne et al [Biochemical Pharmacology, Vol. 31, No. 16, pp 2619-2624 (1982)]. Data presented in Table II are micromolar concentrations of test compound causing 50% inhibition of control response determined graphically from dose-response curves.

The structures appear in SMILES notation.

For the compound `Cc1cccc2sc(SC3CCCc4cccnc43)nc12` (stereo not shown) [Example 24, 8-[(4-methyl-2-benzothiazolyl)thio]-5,6,7,8-tetrahydroquinoline], the IC50 was determined as 14 µM on LTD4 receptor and 3.5 µM at 5-lipoxygenase.
For `Clc1ccc2sc(SC3CCCc4cccnc43)nc2c1` (stereo not shown) [Example 11, 8-[(5-chloro-2-benzothiazolyl)thio]-5,6,7,8-tetrahydroquinoline] the same measures were 100 µM and 1.5 µM.
In the case of `Clc1cccc2sc(SC3CCCc4cccnc43)nc12` (stereo not shown) [Example 23], the IC50 on LTD4 receptor is 33 µM; at 5-lipoxygenase, 12 µM.
On to `O=c1[nH]c(SC2CCCc3cccnc32)nc2ccccc12` (stereo not shown) [Example 14, 2-[(5,6,7,8-tetrahydroquinoline-8-yl)thio]-4(3H)-quinazolinone], for which the IC50 on LTD4 receptor and on 5-lipoxygenase was over 100 µM each time.
Take `Clc1cc2nc(SC3CCCc4cccnc43)[nH]c2cc1Cl` (stereo not shown) [Example 7, 8-(5,6-dichloro-1H-benzimidazol-2-ylthio)-5,6,7,8-tetrahydroquinoline]: the IC50 at 5-lipoxygenase came to 4.2 µM.
On to `O=[N+]([O-])c1ccc2nc(SC3CCCc4cccnc43)sc2c1` (stereo not shown) [Example 20], for which the figures for the IC50 at LTD4 receptor and on 5-lipoxygenase were over 100 µM and 4 µM, respectively.
For the compound `c1ccc(-c2nc(SC3CCCc4cccnc43)[nH]c2-c2ccccc2)cc1` (stereo not shown) [Example 25, 8-(4,5-diphenyl-1H-imidazol-2-ylthio)-5,6,7,8-tetrahydroquinoline], the IC50 is over 100 µM on LTD4 receptor and 3 µM on 5-lipoxygenase. Besides, at LTD4 receptor (remark in words), the “LTD4 receptor, remark printed beside the value” is “pot”.
Regarding `c1cnc2c(c1)CCCC2Sc1nccs1` (stereo not shown) [Example 27, 8-(2-thiazolylthio)-5,6,7,8-tetrahydroquinoline], the IC50 is over 100 µM on LTD4 receptor and 25.1 µM at 5-lipoxygenase.
With `Cc1ccc2sc(SC3CCCc4cccnc43)nc2c1` (stereo not shown) [Example 17, 8-[(5-methyl-2-benzothiazolyl)thio]-5,6,7,8-tetrahydroquinoline], the IC50 on LTD4 receptor stood at 7.1 µM; at 5-lipoxygenase it was 1.5 µM.
Turning to `COC(=O)Cc1ccc2oc(SC3CCCc4cccnc43)nc2c1` (stereo not shown) [Example 10, methyl 2-[(5,6,7,8-tetrahydro-8-quinolinyl)-thio]benzoxazole-5-acetate], the IC50 on LTD4 receptor turned out to be 12 µM; on 5-lipoxygenase, 14.1 µM.
For `CCOC(=O)Cc1ccc2[nH]c(SC3CCCc4cccnc43)nc2c1` (stereo not shown) [Example 4, ethyl 2-[(5,6,7,8-tetrahydro-8-quinolinyl)-thio]-1H-benzimidazole-5-acetate], the IC50 at 5-lipoxygenase turned out to be 20 µM.
Regarding `Clc1cc2nc(SC3CCCc4cccnc43)sc2cc1Cl` (stereo not shown) [Example 18, 8-[(5,6-dichloro-2-benzothiazolyl)thio]-5,6,7,8-tetrahydroquinoline], the results for the IC50 on LTD4 receptor and at 5-lipoxygenase were 100 µM and 45 µM, respectively.
Regarding `c1cnc2c(c1)CCCC2Sc1nc2ccccc2o1` (stereo not shown) [Example 9, 8-(2-benzoxazolylthio)-5,6,7,8-tetrahydroquinoline], the IC50 at LTD4 receptor was over 100 µM; on 5-lipoxygenase, 16.9 µM.
Regarding `Cc1ccc2nc(SC3CCCc4cccnc43)[nH]c2c1` (stereo not shown) [Example 6, 8-(6-methyl-1H-benzimidazol-2-ylthio)-5,6,7,8-tetrahydroquinoline], the values for the IC50 on LTD4 receptor and on 5-lipoxygenase were 74 µM and 5 µM, respectively.
Take `O=[N+]([O-])c1ccc2nc(SC3CCCc4cccnc43)[nH]c2c1` (stereo not shown) [Example 5, 8-(6-nitro-1H-benzimidazol-2-ylthio)-5,6,7,8-tetrahydroquinoline]: the IC50 at LTD4 receptor is over 100 µM; on 5-lipoxygenase it was 6.6 µM.
Regarding `Clc1ccc2nc(SC3CCCc4cccnc43)sc2c1` (stereo not shown) [Example 12], the IC50 was 8.9 µM on LTD4 receptor and 2.6 µM at 5-lipoxygenase.
Regarding `c1cnc2c(c1)CCCC2Sc1nc2ccccc2s1` (stereo not shown) [Example 1, 8-(2-benzothiazolylthio)-5,6,7,8-tetrahydroquinoline], the IC50 on LTD4 receptor came to 10 µM; on 5-lipoxygenase it was 1.8 µM.
For `Cc1ccc2nc(SC3CCCc4cccnc43)sc2c1` (stereo not shown) [Example 15, 8-[(6-methyl-2-benzothiazolyl)thio]-5,6,7,8-tetrahydroquinoline] the same measures were 9.5 µM and 2.3 µM.
As to `COc1ccc2nc(SC3CCCc4cccnc43)[nH]c2c1` (stereo not shown) [Example 2, 8-(6-methoxy-1H-benzimidazol-2-ylthio)-5,6,7,8-tetrahydroquinoline], the IC50 at 5-lipoxygenase came out at 58 µM.
For the compound `c1cnc2c(c1)CCCC2Sc1nc2ccccc2[nH]1` (stereo not shown) [Example 3, 8-(1H-benzimidazol-2-ylthio)-5,6,7,8-tetrahydroquinoline], the IC50 on LTD4 receptor is over 100 µM; at 5-lipoxygenase it was 35.1 µM.
The corresponding values for `CCOc1ccc2nc(SC3CCCc4cccnc43)sc2c1` (stereo not shown) [Example 13, 8-[(6-ethoxy-2-benzothiazolyl)thio]-5,6,7,8-tetrahydroquinoline] are 9 µM and 1.2 µM.
As to `Clc1cc(Cl)c2nc(SC3CCCc4cccnc43)sc2c1` (stereo not shown) [Example 22, 8-[(4,6-dichloro-2-benzothiazolyl)thio]-5,6,7,8-tetrahydroquinoline], the IC50 on LTD4 receptor was over 100 µM; at 5-lipoxygenase it was 22 µM.
Turning to `CCSc1ccc2nc(SC3CCCc4cccnc43)sc2c1` (stereo not shown) [Example 19, 8-[(6-ethylthio-2-benzothiazolyl)thio]-5,6,7,8-tetrahydroquinoline], the IC50 amounted to 1.7 µM on LTD4 receptor and 1.1 µM at 5-lipoxygenase.
For `Cn1ccnc1SC1CCCc2cccnc21` (stereo not shown) [Example 26, 8-(1-methylimidazol-2-ylthio)-5,6,7,8-tetrahydroquinoline], the IC50 on LTD4 receptor and on 5-lipoxygenase was over 100 µM throughout.
In the case of `Clc1ccc2nc(SC3CCCc4cccnc43)[nH]c2c1` (stereo not shown) [Example 8, 8-(6-chloro-1H-benzimidazol-2-ylthio)-5,6,7,8-tetrahydroquinoline], the IC50 at LTD4 receptor is 6.3 µM; at 5-lipoxygenase it was 1.9 µM.
With `O=[N+]([O-])c1ccc2sc(SC3CCCc4cccnc43)nc2c1` (stereo not shown) [Example 16, 8-[(5-nitro-2-benzothiazolyl)thio]-5,6,7,8-tetrahydroquinoline], the IC50 at LTD4 receptor is over 100 µM; at 5-lipoxygenase, 2 µM.
In the case of `FC(F)(F)c1ccc2sc(SC3CCCc4cccnc43)nc2c1` (stereo not shown) [Example 21, 8-[(5-trifluoromethyl-2-benzothiazolyl)thio]-5,6,7,8-tetrahydroquinoline], the IC50 at LTD4 receptor was determined as 18 µM; on 5-lipoxygenase, 2.6 µM.
